Our source for the MIC and LD50 values is US4603198A, “Cephalosporin derivatives” (Daiichi Seiyaku Co., Ltd., priority 1982, dated 1986).

Each structure is given as a SMILES string. ≈ marks a conversion by molar mass, not a printed value. Where a name gives a salt, the structure may show the parent alone.

One series concerns E. coli, NIHJ. The experiment in a line: antibacterial activity (in vitro), Minimum Inhibitory Concentration. Format: cell-based. As to conditions: Escherichia coli, 10^6 /ml of bacteria were seeded, syn isomers. An excerpt: (§1) The antibacterial activity (in vitro) of the preferred compounds of this invention are shown in the following Table 1 in comparison with known compounds having a structure similar to that of the compounds of this invention. All compounds of Table 1 are syn isomers.
(§2) Minimum Inhibitory Concentration (MIC, mcg/ml) (10^6 /ml of bacteria

The test system of another series is Pr. vulgaris, 08601. The series is described as above. Format: cell-based. As to conditions: Proteus vulgaris, 10^6 /ml of bacteria were seeded, syn isomers.
Excerpt: as §1, §2

Another series relates to Ps. aeruginosa, 32104. The series is described as above. Type of series: cell-based. As to conditions: Pseudomonas aeruginosa, 10^6 /ml of bacteria were seeded, syn isomers.
Excerpt: as §1, §2

In another series the test system is Ps. aeruginosa, 32121. Described as above. Type of series: cell-based. As to conditions: Pseudomonas aeruginosa, 10^6 /ml of bacteria were seeded, syn isomers.
Excerpt: as §1, §2

The subject of a further series is S. aureus, 209p. Described as above. Type of series: cell-based. As to conditions: Staphylococcus aureus, 10^6 /ml of bacteria were seeded, syn isomers.
Excerpt: as §1, §2

For the next series, the system named is Ser. marcescens, 10104. The series is described as above. Format: cell-based. As to conditions: Serratia marcescens, 10^6 /ml of bacteria were seeded, syn isomers.
Excerpt: as §1, §2

Series [1] is described as follows: acute toxicity in mice (i.v.). The note with it: mouse, in vivo, iv.

By MIC is commonly meant the lowest concentration that inhibits growth of the organism. The LD50 is the dose at which mortality reaches 50%. Low readings indicate a more toxic substance, high ones a less toxic substance. In the case of `Nc1nc(/C(=N/OCc2c[nH]cn2)C(=O)N[C@@H]2C(=O)N3C(C(=O)[O-])=C(C[n+]4ccccc4)CS[C@H]23)cs1` [IA, 7β-(2-(2-aminothiazol-4-yl)-2-((imidazol-4-yl)methoxyimino)acetamido)-3-(1-pyridinio)methyl-3-cephem-4-carboxylate trihydrochloride], the MIC in the series with E. coli, NIHJ came to 0.1 mg/L; with Pr. vulgaris, 08601 it was 0.1 mg/L; in the series on Ps. aeruginosa, 32104, 1.56 mg/L; with Ps. aeruginosa, 32121 it was 1.56 mg/L; against S. aureus, 209p, 0.2 mg/L; in the series with Ser. marcescens, 10104, 0.1 mg/L. Moreover, the LD50 in series [1] was over 2500 mg/kg.

In the case of `NC(=O)c1cc[n+](CC2=C(C(=O)[O-])N3C(=O)[C@@H](NC(=O)/C(=N\OCc4c[nH]cn4)c4csc(N)n4)[C@H]3SC2)cc1` [IB, 7β-(2-(2-aminothiazol-4-yl)-2-((imidazol-4-yl)methoxyimino)acetamido)-3-(4-carbamoyl-1-pyridinio)methyl-3-cephem-4-carboxylate trihydrochloride], the minimal inhibitory concentration (MIC) was under 0.1 mg/L in the series with E. coli, NIHJ; 0.2 mg/L in the series on Pr. vulgaris, 08601; 1.56 mg/L in the series on Ps. aeruginosa, 32104; 12.5 mg/L with Ps. aeruginosa, 32121; 1.56 mg/L in the series on S. aureus, 209p; 0.2 mg/L in the series on Ser. marcescens, 10104.

For the compound `Nc1nc(/C(=N/OCc2cc[nH]n2)C(=O)N[C@@H]2C(=O)N3C(C(=O)[O-])=C(C[n+]4ccccc4)CS[C@H]23)cs1` [IC, 7β-(2-(2-aminothiazol-4-yl)-2-((pyrazol-3-yl)methoxyimino)acetamido)-3-(1-pyridinio)methyl-3-cephem-4-carboxylate], the MIC with E. coli, NIHJ was under 0.1 mg/L; with Pr. vulgaris, 08601, 0.1 mg/L (≈ 0.185 µM); in the series with Ps. aeruginosa, 32104, 1.56 mg/L (≈ 2.89 µM); against Ps. aeruginosa, 32121, 3.13 mg/L (≈ 5.79 µM); in the series on S. aureus, 209p, 0.39 mg/L (≈ 0.721 µM); against Ser. marcescens, 10104, 0.2 mg/L (≈ 0.37 µM). This compound registered an LD50 in series [1] of over 2000 mg/kg.

With `Cn1nnnc1SCC1=C(C(=O)O)N2C(=O)[C@@H](NC(=O)/C(=N\OCc3c[nH]cn3)c3csc(N)n3)[C@H]2SC1` [ID, 7β-(2-(2-aminothiazol-4-yl)-2-((imidazol-4-yl)methoxyimino)acetamido)-3-(1-methyl-1H-tetrazol-5-yl)thiomethyl-3-cephem-4-carboxylic acid dihydrochloride], the MIC with E. coli, NIHJ is under 0.1 mg/L; against Pr. vulgaris, 08601 it was under 0.1 mg/L; with Ps. aeruginosa, 32104, 12.5 mg/L; against Ps. aeruginosa, 32121, 3.13 mg/L; in the series with S. aureus, 209p it was 0.78 mg/L; against Ser. marcescens, 10104, 0.39 mg/L.

On to `Nc1nc(/C(=N/OCc2cn[nH]c2)C(=O)N[C@@H]2C(=O)N3C(C(=O)[O-])=C(C[n+]4ccccc4)CS[C@H]23)cs1` [IE, 7β-(2-(2-aminothiazol-4-yl)-2-((pyrazol-4-yl)methoxyimino)acetamido)-3-(1-pyridinio)methyl-3-cephem-4-carboxylate], for which the MIC in the series on E. coli, NIHJ is under 0.1 mg/L; with Pr. vulgaris, 08601, 0.1 mg/L (≈ 0.185 µM); against Ps. aeruginosa, 32104, 6.25 mg/L (≈ 11.6 µM); in the series with Ps. aeruginosa, 32121, 3.13 mg/L (≈ 5.79 µM); in the series on S. aureus, 209p it was 0.2 mg/L (≈ 0.37 µM); in the series on Ser. marcescens, 10104, 0.2 mg/L (≈ 0.37 µM).

Turning to `Cc1[nH]cnc1CO/N=C(\C(=O)N[C@@H]1C(=O)N2C(C(=O)[O-])=C(C[n+]3ccccc3)CS[C@H]12)c1csc(N)n1` [IF, 7β-(2-(2-aminothiazol-4-yl)-2-((5-methylimidazol-4-yl)methoxyimino)acetamido)-3-(1-pyridino)methyl-3-cephem-4-carboxylate trihydrochloride], the MIC was under 0.1 mg/L against E. coli, NIHJ; 0.1 mg/L against Pr. vulgaris, 08601; 3.13 mg/L against Ps. aeruginosa, 32104; 3.13 mg/L in the series on Ps. aeruginosa, 32121; 0.78 mg/L in the series with S. aureus, 209p; 0.2 mg/L against Ser. marcescens, 10104.

`Cc1cc[n+](CC2=C(C(=O)[O-])N3C(=O)[C@@H](NC(=O)/C(=N\OCc4c[nH]cn4)c4csc(N)n4)[C@H]3SC2)cc1` [IG, 7β-(2-(2-aminothiazol-4-yl)-2-((imidazol-4-yl)methoxyimino)acetamido)-3-(4-methyl-1-pyridinio)methyl-3-cephem-4-carboxylate trihydrochloride]: the MIC against E. coli, NIHJ was under 0.1 mg/L; in the series on Pr. vulgaris, 08601 it was 0.2 mg/L; against Ps. aeruginosa, 32104 it was 3.13 mg/L; against Ps. aeruginosa, 32121, 3.13 mg/L; with S. aureus, 209p it was 1.56 mg/L; against Ser. marcescens, 10104, 0.1 mg/L.

Take `CC(=O)OCC1=C(C(=O)O)N2C(=O)[C@@H](NC(=O)/C(=N\OCc3c[nH]cn3)c3csc(N)n3)[C@H]2SC1` [IH, 7β-(2-(2-aminothiazol-4-yl)-2-((imidazol-4-yl)methoxyimino)acetamido)-3-acetoxymethyl-3-cephem-4-carboxylic acid dihydrochloride]: the MIC in the series with E. coli, NIHJ was under 0.1 mg/L; with Pr. vulgaris, 08601, under 0.1 mg/L; with Ps. aeruginosa, 32104, 12.5 mg/L; with Ps. aeruginosa, 32121, 6.25 mg/L; in the series with S. aureus, 209p, 0.78 mg/L; with Ser. marcescens, 10104, 0.78 mg/L.

Regarding `CO/N=C(\C(=O)N[C@@H]1C(=O)N2C(C(=O)O)=C(COC(C)=O)CS[C@H]12)c1csc(N)n1` [a, Cephotaxim, reference compound], the MIC is under 0.1 mg/L in the series on E. coli, NIHJ; under 0.1 mg/L with Pr. vulgaris, 08601; 25 mg/L (≈ 54.9 µM) against Ps. aeruginosa, 32104; 12.5 mg/L (≈ 27.4 µM) against Ps. aeruginosa, 32121; 3.13 mg/L (≈ 6.87 µM) in the series on S. aureus, 209p; 0.39 mg/L (≈ 0.856 µM) with Ser. marcescens, 10104.

As for `Nc1nc(/C(=N/OCc2nnn[nH]2)C(=O)N[C@@H]2C(=O)N3C(C(=O)[O-])=C(C[n+]4ccccc4)CS[C@H]23)cs1` [b, 7β-(2-(2-aminothiazol-4-yl)-2-((1H-tetrazol-5-yl)methoxyimino)acetamido)-3-pyridiniomethyl-3-cephem-4-carboxylate, reference compound], the MIC came out at 0.1 mg/L (≈ 0.184 µM) against E. coli, NIHJ; 0.1 mg/L (≈ 0.184 µM) with Pr. vulgaris, 08601; 12.5 mg/L (≈ 23 µM) with Ps. aeruginosa, 32104; 50 mg/L (≈ 92.2 µM) in the series on Ps. aeruginosa, 32121; 3.13 mg/L (≈ 5.77 µM) in the series on S. aureus, 209p; 0.39 mg/L (≈ 0.719 µM) in the series on Ser. marcescens, 10104.

In the case of `Nc1nc(/C(=N/OCc2ncc[nH]2)C(=O)N[C@@H]2C(=O)N3C(C(=O)[O-])=C(C[n+]4ccccc4)CS[C@H]23)cs1` [c, 7β-(2-(2-aminothiazol-4-yl)-2-((imidazol-2-yl)methoxyimino)acetamido)-3-pyridiniomethyl-3-cephem-4-carboxylate, reference compound], the MIC in the series on E. coli, NIHJ worked out at 0.2 mg/L (≈ 0.37 µM); against Pr. vulgaris, 08601, 0.39 mg/L (≈ 0.721 µM); against Ps. aeruginosa, 32104, 6.25 mg/L (≈ 11.6 µM); in the series on Ps. aeruginosa, 32121 it was 25 mg/L (≈ 46.2 µM); against S. aureus, 209p it was 1.56 mg/L (≈ 2.89 µM); with Ser. marcescens, 10104, 0.2 mg/L (≈ 0.37 µM).
